# According to patent US20240180900A1, “COMPOUNDS AND METHODS FOR THE TARGETED DEGRADATION OF ANDROGEN RECEPTOR” (Arvinas Operations, Inc., priority 2022, published 2024):
# Read-outs that look alike come from different tables or passages of the source.
# Assays:
# VCaP tumor xenograft [1] = assay: castrated mouse VCaP xenograft model, tumor growth inhibition; type: in vivo; conditions: castrated mice
# Protocol: Treatment groups (n=10 per group) were compared by one-way analysis of variance (ANOVA). Note: ns: not significant, *: p≤0.05, **: p≤0.01, ***: p≤0.001.
# The anti-tumor growth effects of Compound A in vivo were evaluated in the castrated mouse VCaP xenograft model. Briefly, 6- to 8-week-old male CB17/scid mice were implanted with 3×10^6 VCaP tumor cells in the flank region. Once the tumors reached a volume of approximately 100 mm^3, the mice were surgically castrated.
# AR F877L/T878A = biological target: T1, AR F877L/T878A (Homo sapiens, UniProt P10275, F877L/T878A); assay: AR degradation in T-Rex-293 cell line, F877L/T878A; type: cell-based; conditions: T-Rex-293, ELISA
# T1 construct: expressed in transfected cells; host or cells: T-REx-293
# Description: (§1) FIG. 3 is a graph showing Compound A's ability to degrade clinically relevant mutated forms AR.
# (§2) To assess the ability of Compound A to degrade variants of the AR, vectors expressing wild-type AR or mutant AR proteins harboring clinically observed mutations in the ligand binding domain (13 with single amino acid changes or 4 with 2 amino acid changes) (Azad A. A., Volik S. V., Wyatt A. W., et al. Androgen receptor gene aberrations in circulating cell-free DNA: biomarkers of therapeutic resistance in castration-resistant prostate cancer. Clin Cancer Res. 2015; 21:2315-2324; Robinson D., Van Allen E. M., Wu Y. M., et al. Integrative clinical genomics of advanced prostate cancer. Cell. 2015; 161:1215-1228; Ledet E. M., Lilly M. B., Sonpavde G., et al. Comprehensive analysis of AR alterations in circulating tumor DNA from patients with advanced prostate cancer. Oncologist.
# [2] = preliminary PK in mCRPC participants (Phase 1/2); type: in vivo, human
# Protocol: A chiral bioanalytical method by LC-MS/MS has been developed to characterize the PK of Compound A. Pharmacokinetic analyses were performed using noncompartmental analysis methods.
# Mean steady state peak/trough ratio is less than 2, which indicates minimal fluctuation in plasma concentrations once steady state is achieved. Steady state occurs within 3 weeks into treatment.
# An ongoing, open-label, Phase 1/2 study in male participants with mCRPC. The Phase 1 dose escalation investigated Compound A doses of 20 mg, 40 mg, 80 mg, 100 mg, 160 mg, 200 mg, 320 mg, 400 mg, 480 mg, and 500 mg administered QD. […] Doses of 100 mg QD and 300 mg QD were selected for the Phase 2 cohort expansion.
# AR M750V = biological target: T2, AR M750V (Homo sapiens, UniProt P10275, M750V); assay: AR degradation in T-Rex-293 cell line, M750V; type: cell-based; conditions: T-Rex-293, ELISA
# T2 construct: expressed in transfected cells; host or cells: T-REx-293
# Description: as §1, §2
# VCaP tumor xenograft [3] = assay: VCaP tumor xenograft study in intact (non-castrated) mice; type: in vivo, mouse
# Description: To mimic higher androgen levels found in an incomplete testosterone suppression environment, intact (non-castrated) mice were employed for a VCaP tumor xenograft study.
# AR WT = biological target: T3, AR WT (Homo sapiens, UniProt P10275); assay: AR degradation in T-Rex-293 cell line, wild-type AR; type: cell-based; conditions: T-Rex-293, ELISA
# T3 construct: expressed in transfected cells; host or cells: T-REx-293
# Protocol: as §1
# Plasmids expressing AR WT or the indicated AR mutants were stably transfected into HEK293 cells. Each cell line was treated with indicated concentrations of Compound A for 24 hours. AR levels were determined by AR ELISA without background subtraction. […]
# as §2
# [4] = biological target: T4, AR (LNCaP cells, AR mutation T878A) (Homo sapiens, UniProt P10275, T878A); assay: AR degradation assay in LNCaP cells; type: cell-based; conditions: 24 hours of treatment
# T4 construct: endogenous in cells; host or cells: LNCaP
# Protocol: FIG. 2 is an analysis of Compound A in in vitro AR degradation assays conducted in VCaP cells and LNCaP cancer cells that harbor AR amplification and the AR mutation (T878A) mutation, respectively.
# To determine the pharmacological effect of Compound A in vitro, AR degradation assays were conducted in VCaP (vertebral-cancer of the prostate) cancer cells and LNCaP (lymph node carcinoma of the prostate) cancer cells that harbor AR amplification and the AR mutation (T878A) mutation, respectively.
# To determine the pharmacological effect of Compound A in vitro, AR degradation assays were conducted in VCaP cells and LNCaP prostate cancer cells that harbor AR amplification and the AR mutation (T878A) mutation, respectively.
# AR V716M = biological target: T5, AR V716M (Homo sapiens, UniProt P10275, V716M); assay: AR degradation in T-Rex-293 cell line, V716M; type: cell-based; conditions: T-Rex-293, ELISA
# T5 construct: expressed in transfected cells; host or cells: T-REx-293
# Description: as §1, §2
# T4 sequence (P10275 whole entry T878A): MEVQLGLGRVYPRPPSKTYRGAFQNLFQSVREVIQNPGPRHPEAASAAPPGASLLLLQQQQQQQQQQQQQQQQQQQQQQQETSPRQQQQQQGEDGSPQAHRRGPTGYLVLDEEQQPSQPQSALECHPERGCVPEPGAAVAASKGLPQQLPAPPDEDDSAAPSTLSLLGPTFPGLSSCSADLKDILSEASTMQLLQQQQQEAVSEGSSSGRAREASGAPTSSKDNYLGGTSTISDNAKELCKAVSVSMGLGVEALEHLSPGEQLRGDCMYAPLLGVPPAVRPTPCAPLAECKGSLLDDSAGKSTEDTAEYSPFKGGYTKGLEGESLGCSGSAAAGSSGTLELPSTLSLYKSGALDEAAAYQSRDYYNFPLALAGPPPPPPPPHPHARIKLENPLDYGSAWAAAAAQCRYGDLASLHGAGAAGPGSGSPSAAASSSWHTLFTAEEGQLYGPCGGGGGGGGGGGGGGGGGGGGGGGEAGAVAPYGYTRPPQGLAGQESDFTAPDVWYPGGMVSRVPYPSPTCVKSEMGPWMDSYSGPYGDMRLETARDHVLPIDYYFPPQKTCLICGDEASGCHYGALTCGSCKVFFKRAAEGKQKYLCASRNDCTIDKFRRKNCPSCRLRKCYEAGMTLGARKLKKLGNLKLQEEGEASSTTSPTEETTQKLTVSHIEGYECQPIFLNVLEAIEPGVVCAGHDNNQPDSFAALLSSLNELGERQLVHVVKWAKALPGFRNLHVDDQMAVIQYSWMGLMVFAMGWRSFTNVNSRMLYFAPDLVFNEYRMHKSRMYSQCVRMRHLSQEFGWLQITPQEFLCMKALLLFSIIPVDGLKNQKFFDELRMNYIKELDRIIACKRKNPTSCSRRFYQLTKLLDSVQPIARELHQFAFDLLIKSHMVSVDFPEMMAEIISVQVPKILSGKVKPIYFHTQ
# T5 sequence (P10275 whole entry V716M): as the sequence (P10275 whole entry T878A) above, with V716M, A878T counted along it
# T2 sequence (P10275 whole entry M750V): as the sequence (P10275 whole entry T878A) above, with M750V, A878T counted along it
# T1 sequence (P10275 whole entry F877L/T878A): as the sequence (P10275 whole entry T878A) above, with F877L counted along it
# T3 sequence (P10275 whole entry): as the sequence (P10275 whole entry T878A) above, with A878T counted along it
smiles,measurement,setting,value
"COc1cc(O[C@H]2C(C)(C)[C@H](NC(=O)c3ccc(N4CCC(CN5CCN(c6ccc(C(=O)N[C@H]7CCC(=O)NC7=O)c(F)c6)CC5)CC4)cc3)C2(C)C)ccc1C#N [Compound A, 4-(4-((1-(4-(((1R,3R)-3-(4-cyano-3-methoxyphenoxy)-2,2,4,4-tetramethylcyclobutyl)carbamoyl)phenyl)piperidin-4-yl)methyl)piperazin-1-yl)-N—((S)-2,6-dioxopiperidin-3-yl)-2-fluorobenzamide]",TGI relative to vehicle control,"VCaP tumor xenograft [1]; 0.1 mg/kg/day QD for 24 days, statistically insignificant",45%
same,TGI relative to vehicle control,"VCaP tumor xenograft [1]; 0.3 mg/kg/day QD for 24 days, statistically insignificant",49%
same,TGI relative to vehicle control,VCaP tumor xenograft [1]; 1 mg/kg/day QD for 24 days,81%
same,TGI relative to vehicle control,"VCaP tumor xenograft [1]; 3 mg/kg/day QD for 24 days, oral gavage",100%
same,DC50,AR F877L/T878A,7 nM
same,Mean steady state peak/trough ratio,[2]; QD dosing,less than 2
same,time to steady state,[2]; QD dosing,≤ 3 weeks
same,AUC(0-t),"[2]; human, plasma, oral, 20 mg, 20 mg QD, individual value (n = 1), read-out: AUC0-24 Day 1",178 ng·h/mL
same,AUC(0-t),"[2]; human, plasma, oral, 20 mg, 20 mg QD, individual value (n = 1), read-out: AUC0-24 Day 21",997 ng·h/mL
same,Cmax,"[2]; human, plasma, oral, 20 mg, 20 mg QD, individual value (n = 1), read-out: Cmax Day 1",11.1 ng/mL
same,Cmax,"[2]; human, plasma, oral, 20 mg, 20 mg QD, individual value (n = 1), read-out: Cmax Day 21",44.1 ng/mL
same,AUC(0-t),"[2]; human, plasma, oral, 40 mg, 40 mg QD, individual value (n = 1), read-out: AUC0-24 Day 1",314 ng·h/mL
same,AUC(0-t),"[2]; human, plasma, oral, 40 mg, 40 mg QD, individual value (n = 1), read-out: AUC0-24 Day 21",1300 ng·h/mL
same,Cmax,"[2]; human, plasma, oral, 40 mg, 40 mg QD, individual value (n = 1), read-out: Cmax Day 1",19.1 ng/mL
same,Cmax,"[2]; human, plasma, oral, 40 mg, 40 mg QD, individual value (n = 1), read-out: Cmax Day 21",60.3 ng/mL
same,AUC(0-t),"[2]; human, plasma, oral, 80 mg, 80 mg QD, individual value (n = 1), read-out: AUC0-24 Day 1",432 ng·h/mL
same,AUC(0-t),"[2]; human, plasma, oral, 80 mg, 80 mg QD, individual value (n = 1), read-out: AUC0-24 Day 21",3110 ng·h/mL
same,Cmax,"[2]; human, plasma, oral, 80 mg, 80 mg QD, individual value (n = 1), read-out: Cmax Day 1",22.2 ng/mL
same,Cmax,"[2]; human, plasma, oral, 80 mg, 80 mg QD, individual value (n = 1), read-out: Cmax Day 21",139 ng/mL
same,AUC(0-t),"[2]; male, human, plasma, oral, 100 mg, 100 mg QD (N=6), Cycle 1 Day 21, read-out: mean steady-state AUC0-24",4610 ng·h/mL
same,AUC(0-t),"[2]; male, human, plasma, oral, 100 mg, 100 mg QD, Mean (CV %), read-out: AUC0-24 Day 1",816 ng·h/mL
same,AUC(0-t),"[2]; male, human, plasma, oral, 100 mg, 100 mg QD, Mean (CV %), read-out: AUC0-24 Day 21",4610 ng·h/mL
same,Cmax,"[2]; male, human, plasma, oral, 100 mg, 100 mg QD, Mean (CV %), read-out: Cmax Day 1",45.1 ng/mL
same,Cmax,"[2]; male, human, plasma, oral, 100 mg, 100 mg QD, Mean (CV %), read-out: Cmax Day 21",233 ng/mL
same,AUC(0-t),"[2]; male, human, plasma, oral, 160 mg, 160 mg QD, Mean (CV %), read-out: AUC0-24 Day 1",2050 ng·h/mL
same,AUC(0-t),"[2]; male, human, plasma, oral, 160 mg, 160 mg QD, Mean (CV %), read-out: AUC0-24 Day 21",8450 ng·h/mL
same,Cmax,"[2]; male, human, plasma, oral, 160 mg, 160 mg QD, Mean (CV %), read-out: Cmax Day 1",125 ng/mL
same,Cmax,"[2]; male, human, plasma, oral, 160 mg, 160 mg QD, Mean (CV %), read-out: Cmax Day 21",445 ng/mL
same,AUC(0-t),"[2]; male, human, plasma, oral, 200 mg, 200 mg QD, Mean (CV %), read-out: AUC0-24 Day 1",1830 ng·h/mL
same,AUC(0-t),"[2]; male, human, plasma, oral, 200 mg, 200 mg QD, Mean (CV %), read-out: AUC0-24 Day 21",11500 ng·h/mL
same,Cmax,"[2]; male, human, plasma, oral, 200 mg, 200 mg QD, Mean (CV %), read-out: Cmax Day 1",110 ng/mL
same,Cmax,"[2]; male, human, plasma, oral, 200 mg, 200 mg QD, Mean (CV %), read-out: Cmax Day 21",559 ng/mL
same,AUC(0-t),"[2]; male, human, plasma, oral, 300 mg, 300 mg QD, Mean (CV %), read-out: AUC0-24 Day 1",2220 ng·h/mL
same,AUC(0-t),"[2]; male, human, plasma, oral, 300 mg, 300 mg QD, Mean (CV %), read-out: AUC0-24 Day 21",14900 ng·h/mL
same,Cmax,"[2]; male, human, plasma, oral, 300 mg, 300 mg QD, Mean (CV %), read-out: Cmax Day 1",119 ng/mL
same,Cmax,"[2]; male, human, plasma, oral, 300 mg, 300 mg QD, Mean (CV %), read-out: Cmax Day 21",672 ng/mL
same,AUC(0-t),"[2]; male, human, plasma, oral, 320 mg, 320 mg QD, Mean (CV %), read-out: AUC0-24 Day 1",3990 ng·h/mL
same,AUC(0-t),"[2]; male, human, plasma, oral, 320 mg, 320 mg QD, Mean (CV %), read-out: AUC0-24 Day 21",23100 ng·h/mL
same,Cmax,"[2]; male, human, plasma, oral, 320 mg, 320 mg QD, Mean (CV %), read-out: Cmax Day 1",223 ng/mL
same,Cmax,"[2]; male, human, plasma, oral, 320 mg, 320 mg QD, Mean (CV %), read-out: Cmax Day 21",1070 ng/mL
same,AUC(0-t),"[2]; male, human, plasma, oral, 400 mg, 400 mg QD, Mean (CV %), read-out: AUC0-24 Day 1",3350 ng·h/mL
same,AUC(0-t),"[2]; male, human, plasma, oral, 400 mg, 400 mg QD, Mean (CV %), read-out: AUC0-24 Day 21",11900 ng·h/mL
same,Cmax,"[2]; male, human, plasma, oral, 400 mg, 400 mg QD, Mean (CV %), read-out: Cmax Day 1",232 ng/mL
same,Cmax,"[2]; male, human, plasma, oral, 400 mg, 400 mg QD, Mean (CV %), read-out: Cmax Day 21",526 ng/mL
same,AUC(0-t),"[2]; male, human, plasma, oral, 480 mg, 480 mg QD, Mean (CV %), read-out: AUC0-24 Day 1",2540 ng·h/mL
same,AUC(0-t),"[2]; male, human, plasma, oral, 480 mg, 480 mg QD, Mean (CV %), read-out: AUC0-24 Day 21",12900 ng·h/mL
same,Cmax,"[2]; male, human, plasma, oral, 480 mg, 480 mg QD, Mean (CV %), read-out: Cmax Day 1",145 ng/mL
same,Cmax,"[2]; male, human, plasma, oral, 480 mg, 480 mg QD, Mean (CV %), read-out: Cmax Day 21",644 ng/mL
same,AUC(0-t),"[2]; male, human, plasma, oral, 500 mg, 500 mg QD, Mean (CV %), read-out: AUC0-24 Day 1",3590 ng·h/mL
same,AUC(0-t),"[2]; male, human, plasma, oral, 500 mg, 500 mg QD, Mean (CV %), read-out: AUC0-24 Day 21",15000 ng·h/mL
same,Cmax,"[2]; male, human, plasma, oral, 500 mg, 500 mg QD, Mean (CV %), read-out: Cmax Day 1",203 ng/mL
same,Cmax,"[2]; male, human, plasma, oral, 500 mg, 500 mg QD, Mean (CV %), read-out: Cmax Day 21",703 ng/mL
same,half-life,"[2]; male, human, plasma, oral, QD dosing, mCRPC participants, read-out: effective mean T1/2",83 to 111 h
same,Tmax,"[2]; male, human, plasma, oral administration, mCRPC participants, read-out: median Tmax",~8 h
same,DC50,AR M750V,1.4 nM
same,tumor growth inhibition (TGI),VCaP tumor xenograft [3]; 1 mg/kg/day orally QD for 21 days,34%
same,tumor growth inhibition (TGI),VCaP tumor xenograft [3]; 3 mg/kg/day orally QD for 21 days,74%
same,tumor growth inhibition (TGI),VCaP tumor xenograft [3]; 10 mg/kg/day orally QD for 21 days,98%
same,DC50,AR WT,1.5 nM
same,DC50,[4],≤ 1.3 nM
same,Dmax,[4],≥ 91%
same,DC50,AR V716M,0.4 nM
